Source: patent US8513232B2, “Substituted spirocyclic piperidine derivatives as histamine-3 (H3) receptor ligands” (Cephalon, Inc., priority 2008, dated 2013)
Like-named read-outs stand apart in the source and are kept apart here.

How the values were obtained:
human H3 receptor = molecular target: T1, human H3 receptor (Homo sapiens, UniProt Q9Y5N1); assay: Human H3 radioligand binding ([3H]-N-alpha-methylhistamine, SPA)
T1 construct: expressed in transfected cells
How it was run: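 Compounds (0.01 nM-30 μM) competed with approximately 1 nM [3H]-N-alpha-methylhistamine for human H3 receptor in membranes of stably transfected CHO cells, 10 μg protein per well, in Tris-HCl pH 7.4/MgCl2/BSA buffer for 4 h at room temperature. Bound radioligand measured by scintillation proximity; 10 μM clobenpropit gave non-specific binding.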

[1] = molecular target: T2, rat histamine H3 receptor (Rattus norvegicus, UniProt Q9QYN8); assay: Rat H3 radioligand binding ([3H]-N-alpha-methylhistamine, SPA)
T2 construct: encoding the entire 445-amino-acid rat histamine H3 receptor; expressed in transfected cells; membrane preparation
How it was run: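 SPA-bead binding assay using [3H]-N-alpha-methylhistamine (approximately 1 nM final) with test compounds from 0.01 nM to 30 μM. Rat H3 receptor membranes came from stably transfected CHO-A3 cells; incubation ran 4 h at room temperature, in the dark, in Tris pH 7.4 buffer with MgCl2 and BSA. Clobenpropit (10 μM) gave non-specific binding.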

[2] = human H3 binding, Table D, read-out: Human H3 Ki
[3] = rat H3 binding, Table D, read-out: Rat H3 Ki
[4] = Human H3 binding, Table B, Examples 136-362, read-out: hum H3 binding Ki
[5] = Rat H3 binding, Table B, Examples 136-362, read-out: rat H3 binding Ki
[6] = Table A, human H3 binding, read-out: Human Ki
[7] = Table A, rat H3 binding, read-out: Rat Ki
[8] = Table C, human H3 binding, read-out: Human H3 Ki
[9] = Table C, rat H3 binding, read-out: Rat H3 Ki

T2 sequence (Q9QYN8 whole entry): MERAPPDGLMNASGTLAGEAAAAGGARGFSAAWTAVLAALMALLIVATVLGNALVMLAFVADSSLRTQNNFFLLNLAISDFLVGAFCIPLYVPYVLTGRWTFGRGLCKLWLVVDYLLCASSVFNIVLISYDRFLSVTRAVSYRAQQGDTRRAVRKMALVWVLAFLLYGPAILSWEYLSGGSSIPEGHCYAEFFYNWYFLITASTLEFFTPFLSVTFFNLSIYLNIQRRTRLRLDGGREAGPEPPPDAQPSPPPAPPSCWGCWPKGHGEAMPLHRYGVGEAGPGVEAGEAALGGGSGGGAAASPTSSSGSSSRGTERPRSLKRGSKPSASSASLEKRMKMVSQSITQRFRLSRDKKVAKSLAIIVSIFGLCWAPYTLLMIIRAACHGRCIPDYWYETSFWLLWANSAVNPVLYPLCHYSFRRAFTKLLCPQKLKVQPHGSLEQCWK
T1 sequence (Q9Y5N1 whole entry): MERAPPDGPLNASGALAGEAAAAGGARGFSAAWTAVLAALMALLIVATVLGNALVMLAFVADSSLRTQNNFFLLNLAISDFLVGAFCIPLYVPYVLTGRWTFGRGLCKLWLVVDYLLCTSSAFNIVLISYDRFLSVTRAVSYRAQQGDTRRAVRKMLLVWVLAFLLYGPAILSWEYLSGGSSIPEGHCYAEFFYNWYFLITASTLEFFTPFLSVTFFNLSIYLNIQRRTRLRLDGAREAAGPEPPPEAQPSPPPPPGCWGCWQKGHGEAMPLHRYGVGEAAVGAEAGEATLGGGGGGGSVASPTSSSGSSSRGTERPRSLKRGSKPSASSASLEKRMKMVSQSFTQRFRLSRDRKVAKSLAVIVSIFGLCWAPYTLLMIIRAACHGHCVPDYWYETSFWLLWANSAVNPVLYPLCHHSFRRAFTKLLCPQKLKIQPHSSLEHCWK

Compound	melting point [°C]	Ki (human H3 receptor; [2]) [nM]	Ki [1, 3] [nM]	Ki (human H3 receptor; [4]) [nM]	Ki [1, 5] [nM]	also measured
Cc1nnc(C2CCN(c3ccc4c(c3)COC3(CCN(C5CCC5)CC3)O4)CC2)o1 [Example 657]	75.5 to 77.8	< 200	< 200	–	–	–
O=C(N1CCOCC1)N1CCN(c2ccc3c(c2)COC2(CCN(C4CCC4)CC2)O3)CC1 [Example 310]	174 to 176	–	–	< 200	< 200	–
[O-][S+]1CC=C(c2ccc3c(c2)COC2(CC[N+]([O-])(C4CCC4)CC2)O3)CC1 (stereo not drawn) [Example 472]	130 to 133	–	–	–	–	Ki (human H3 receptor; read-out: Human H3 Ki): < 200 nM; Ki ([1]; read-out: Rat H3 kI): < 200 nM
O=C(NCCO)c1ccc(-c2ccc3c(c2)CCC2(CCN(C4CCC4)CC2)O3)cc1F [Example 147]	215 to 217	–	–	< 200	< 200	–
O=c1ccc(-c2ccc3c(c2)COC2(CCN(CC4CCOCC4)CC2)O3)c[nH]1 [Example 722]	245 to 248	200 to 1000	> 1000	–	–	–
O=C(c1ccc(-c2ccc3c(c2)COC2(CCN(C4CCC4)CC2)O3)cn1)N1CC[C@@H](O)C1 [Example 173]	100 to 101	–	–	< 200	< 200	–
c1cc2c(cc1OCc1nnc(C3CC3)o1)CCC1(CCN(C3CCC3)CC1)O2 [Example 671]	158 to 159	< 200	< 200	–	–	–
COC1CCN(C(=O)c2ccc(-c3ccc4c(c3)COC3(CCN(C5CCC5)CC3)O4)cc2)CC1 [Example 263]	94 to 96	–	–	< 200	< 200	–
O=c1ccc(-c2ccc3c(c2)CCC2(CCN(C4CCC4)CC2)O3)c[nH]1 [Example 429]	260 to 262	–	–	–	–	Ki (human H3 receptor; [8]): < 200 nM; Ki [1, 9]: < 200 nM
c1cnc(N2CCN(c3ccc4c(c3)CCC3(CCN(C5CCC5)CC3)O4)CC2)nc1 [Example 369]	156 to 157	–	–	–	–	Ki (human H3 receptor; [8]): < 200 nM; Ki [1, 9]: < 200 nM

More lines, main results first:

melting point [°C]	Ki (human H3 receptor; [2]) [nM]	Ki [1, 3] [nM]	Ki (human H3 receptor; [4]) [nM]	Ki [1, 5] [nM]	Compound	also measured
138 to 140	–	–	< 200	< 200	COCC(C)(C)NC(=O)c1ccc(-c2ccc3c(c2)COC2(CCN(C4CCC4)CC2)O3)cc1 [Example 284]	–
55 to 58	–	–	–	–	c1cnc(Nc2ccc3c(c2)COC2(CCN(C4CCC4)CC2)O3)nc1 [Example 127]	Ki (human H3 receptor; [6]): < 200 nM; Ki [1, 7]: < 200 nM
95.2 to 97	< 200	< 200	–	–	Cc1cc(-c2ccc3c(c2)COC2(CCN(C4CCC4)CC2)O3)cnc1O [Example 609]	–
164 to 166	< 200	< 200	–	–	NC(=O)c1ccc(-c2ccc3c(c2)COC2(CCN(C4CCC4)CC2)O3)cc1Cl [Example 604]	–
140 to 143	–	–	< 200	< 200	Cc1nn(C)c(C)c1-c1ccc2c(c1)COC1(CCN(C3CCC3)CC1)O2 [Example 199]	–
149.8 to 150.4	< 200	< 200	–	–	COc1cc(C)c(-c2ccc3c(c2)COC2(CCN(C4CCC4)CC2)O3)c(C)n1 [Example 795]	–
239 to 240	–	–	–	–	Cc1cc2c(cc1-c1ccc(=O)[nH]c1)COC1(CCN(C3CCC3)CC1)O2 [Example 543]	Ki (human H3 receptor; read-out: Human H3 Ki): < 200 nM; Ki ([1]; read-out: Rat H3 kI): 200 to 1000 nM
117 to 118	–	–	< 200	< 200	c1cncc(CNc2ccc3c(c2)COC2(CCN(C4CCC4)CC2)O3)c1 [Example 321]	–
52 to 57	–	–	–	–	c1ccc(Nc2ccc3c(c2)COC2(CCN(C4CCC4)CC2)O3)cc1 [Example 124]	Ki (human H3 receptor; [6]): < 200 nM; Ki [1, 7]: < 200 nM
180 to 183	–	–	–	–	OC1(c2ccc3c(c2)COC2(CCN(C4CCC4)CC2)O3)COC1 [Example 505]	Ki (human H3 receptor; read-out: Human H3 Ki): < 200 nM; Ki ([1]; read-out: Rat H3 kI): < 200 nM
68 to 70	< 200	200 to 1000	–	–	COCCNC(=O)CCc1ccc2c(c1)COC1(CCN(C3CCC3)CC1)O2 [Example 644]	–
216 to 220	–	–	< 200	< 200	CN(c1ccc2c(c1)COC1(CCN(C3CCC3)CC1)O2)c1ccccn1 [Example 144]	–
